Test results published in patent publication US9738634B2, “Heterocyclic amide compound and herbicide” (SYNGENTA PARTICIPATIONS AG, priority 2013, dated 2017).

Assays:
Format in all cases: in vivo
Details in all cases: treatment dosage 320 g/ha
barnyard grass [1] = assay: Test Example 1: weedkilling efficacy, preemergent weed treatment in the submerged state; A: barnyard grass
Procedure, shortened: (§1)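 Emulsion diluted with water to the specified per-hectare dosage is applied onto flood water (4 cm) over alluvial soil on the sowing day, with barnyard grass, bulrush and pondweed seeded and rice (2.5-leaf) transplanted; plants grow at 25–30 °C and are rated at 3 weeks.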

bulrush [2] = assay: Test Example 1: weedkilling efficacy, preemergent weed treatment in the submerged state; B: bulrush
Procedure, shortened: as §1

oval-leafed pondweed [3] = assay: Test Example 1: weedkilling efficacy, preemergent weed treatment in the submerged state; C: oval-leafed pondweed
Procedure, shortened: as §1

transplanted rice = assay: Test Example 1: preemergent weed treatment in the submerged state, effect on crop; a: transplanted rice
Procedure, shortened: as §1

barnyard grass [4] = assay: Test Example 2: weedkilling efficacy, growth period weed treatment in the submerged state; A: barnyard grass
Procedure, shortened: (§2)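 First, alluvial soil in pots is flooded to 4 cm and mixed seed is sown. Next, plants grow in a greenhouse at 25 to 30° C until the 1-2 leaf stage. Then diluted emulsion is applied onto the water surface at the given g/ha rate, and injury is assessed after 3 weeks.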

bulrush [5] = assay: Test Example 2: weedkilling efficacy, growth period weed treatment in the submerged state; B: bulrush
Procedure, shortened: as §2

oval-leafed pondweed [6] = assay: Test Example 2: weedkilling efficacy, growth period weed treatment in the submerged state; C: oval-leafed pondweed
Procedure, shortened: as §2

crabgrass [7] = assay: Test Example 3: weedkilling efficacy through soil treatment; D: crabgrass
Procedure, shortened: (§3)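 Crop and weed responses were judged three weeks after a uniform surface spray of the water-diluted emulsion at the given g/ha rate. Seeds sat beneath about 1.5 cm of sterilized diluvial soil, and boxes stood in a greenhouse at 25 to 30° C.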

green foxtail [8] = assay: Test Example 3: weedkilling efficacy through soil treatment; E: green foxtail
Procedure, shortened: as §3

barnyard grass [9] = assay: Test Example 3: weedkilling efficacy through soil treatment; F: barnyard grass
Procedure, shortened: as §3

wild oat [10] = assay: Test Example 3: weedkilling efficacy through soil treatment; G: wild oat
Procedure, shortened: as §3

black-grass [11] = assay: Test Example 3: weedkilling efficacy through soil treatment; H: black-grass
Procedure, shortened: as §3

Italian ryegrass [12] = assay: Test Example 3: weedkilling efficacy through soil treatment; I: Italian ryegrass
Procedure, shortened: as §3

common wind-grass [13] = assay: Test Example 3: weedkilling efficacy through soil treatment; J: common wind-grass
Procedure, shortened: as §3

Indian mallow [14] = assay: Test Example 3: weedkilling efficacy through soil treatment; K: Indian mallow
Procedure, shortened: as §3

redroot pigweed [15] = assay: Test Example 3: weedkilling efficacy through soil treatment; L: redroot pigweed
Procedure, shortened: as §3

fig-leafed goosefoot [16] = assay: Test Example 3: weedkilling efficacy through soil treatment; M: fig-leafed goosefoot
Procedure, shortened: as §3

chickweed [17] = assay: Test Example 3: weedkilling efficacy through soil treatment; N: chickweed
Procedure, shortened: as §3

birds-eye speedwell [18] = assay: Test Example 3: weedkilling efficacy through soil treatment; p: birds-eye speedwell
Procedure, shortened: as §3

directly sown rice [19] = assay: Test Example 3: soil treatment, effect on crop; b: directly sown rice
Procedure, shortened: as §3

corn [20] = assay: Test Example 3: soil treatment, effect on crop; c: corn
Procedure, shortened: as §3

soybean [21] = assay: Test Example 3: soil treatment, effect on crop; d: soybean
Procedure, shortened: as §3

wheat [22] = assay: Test Example 3: soil treatment, effect on crop; e: wheat
Procedure, shortened: as §3

beet [23] = assay: Test Example 3: soil treatment, effect on crop; f: beet
Procedure, shortened: as §3

rapeseed [24] = assay: Test Example 3: soil treatment, effect on crop; g: rapeseed
Procedure, shortened: as §3

crabgrass [25] = assay: Test Example 4: weedkilling efficacy by foliar treatment; D: crabgrass
Procedure, shortened: (§4)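 Seeds are spot-sown into sterilized diluvial soil and covered with about 1.5 cm of soil. After 14 days' greenhouse growth at 25 to 30° C, plants are sprayed on stems and leaves with diluted emulsion at the stated g/ha rate, then scored at 3 weeks.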

green foxtail [26] = assay: Test Example 4: weedkilling efficacy by foliar treatment; E: green foxtail
Procedure, shortened: as §4

barnyard grass [27] = assay: Test Example 4: weedkilling efficacy by foliar treatment; F: barnyard grass
Procedure, shortened: as §4

wild oat [28] = assay: Test Example 4: weedkilling efficacy by foliar treatment; G: wild oat
Procedure, shortened: as §4

black-grass [29] = assay: Test Example 4: weedkilling efficacy by foliar treatment; H: black-grass
Procedure, shortened: as §4

Italian ryegrass [30] = assay: Test Example 4: weedkilling efficacy by foliar treatment; I: Italian ryegrass
Procedure, shortened: as §4

common wind-grass [31] = assay: Test Example 4: weedkilling efficacy by foliar treatment; J: common wind-grass
Procedure, shortened: as §4

Indian mallow [32] = assay: Test Example 4: weedkilling efficacy by foliar treatment; K: Indian mallow
Procedure, shortened: as §4

redroot pigweed [33] = assay: Test Example 4: weedkilling efficacy by foliar treatment; L: redroot pigweed
Procedure, shortened: as §4

fig-leafed goosefoot [34] = assay: Test Example 4: weedkilling efficacy by foliar treatment; M: fig-leafed goosefoot
Procedure, shortened: as §4

chickweed [35] = assay: Test Example 4: weedkilling efficacy by foliar treatment; N: chickweed
Procedure, shortened: as §4

catchweed = assay: Test Example 4: weedkilling efficacy by foliar treatment; O: catchweed
Procedure, shortened: as §4

birds-eye speedwell [36] = assay: Test Example 4: weedkilling efficacy by foliar treatment; p: birds-eye speedwell
Procedure, shortened: as §4

directly sown rice [37] = assay: Test Example 4: foliar treatment, effect on crop; b: directly sown rice
Procedure, shortened: as §4

corn [38] = assay: Test Example 4: foliar treatment, effect on crop; c: corn
Procedure, shortened: as §4

soybean [39] = assay: Test Example 4: foliar treatment, effect on crop; d: soybean
Procedure, shortened: as §4

wheat [40] = assay: Test Example 4: foliar treatment, effect on crop; e: wheat
Procedure, shortened: as §4

beet [41] = assay: Test Example 4: foliar treatment, effect on crop; f: beet
Procedure, shortened: as §4

rapeseed [42] = assay: Test Example 4: foliar treatment, effect on crop; g: rapeseed
Procedure, shortened: as §4

## COc1cc(C(F)(F)F)cc(NC(=O)C(C)(C)N2COC(C)=C(c3ccccc3)C2=O)n1 [B-2-49]
Barnyard grass [1]
  A (barnyard grass) weedkilling efficacy grade: 5 (weed kill ratio 90% or more, (practically complete withering))
Bulrush [2]
  B (bulrush) weedkilling efficacy grade: 5 (weed kill ratio 90% or more, (practically complete withering))
oval-leafed pondweed [3]
  C (oval-leafed pondweed) weedkilling efficacy grade: 5 (weed kill ratio 90% or more, (practically complete withering))
Transplanted rice
  a (transplanted rice) effect on crop grade: 3 (weed kill ratio 40% or more, less than 70%)
Barnyard grass [4]
  A (barnyard grass) weedkilling efficacy grade: 5 (weed kill ratio 90% or more, (practically complete withering))
Bulrush [5]
  B (bulrush) weedkilling efficacy grade: 5 (weed kill ratio 90% or more, (practically complete withering))
oval-leafed pondweed [6]
  C (oval-leafed pondweed) weedkilling efficacy grade: 5 (weed kill ratio 90% or more, (practically complete withering))
Crabgrass [7]
  D (crabgrass) weedkilling efficacy grade: 5 (weed kill ratio 90% or more, (practically complete withering))
Green foxtail [8]
  E (green foxtail) weedkilling efficacy grade: 5 (weed kill ratio 90% or more, (practically complete withering))
Barnyard grass [9]
  F (barnyard grass) weedkilling efficacy grade: 5 (weed kill ratio 90% or more, (practically complete withering))
Wild oat [10]
  G (wild oat) weedkilling efficacy grade: 3 (weed kill ratio 40% or more, less than 70%)
black-grass [11]
  H (black-grass) weedkilling efficacy grade: 5 (weed kill ratio 90% or more, (practically complete withering))
Italian ryegrass [12]
  I (Italian ryegrass) weedkilling efficacy grade: 5 (weed kill ratio 90% or more, (practically complete withering))
Common wind-grass [13]
  J (common wind-grass) weedkilling efficacy grade: 5 (weed kill ratio 90% or more, (practically complete withering))
Indian mallow [14]
  K (Indian mallow) weedkilling efficacy grade: 1 (weed kill ratio 5% or more, less than 20%)
Redroot pigweed [15]
  L (redroot pigweed) weedkilling efficacy grade: 4 (weed kill ratio 70% or more, less than 90%)
fig-leafed goosefoot [16]
  M (fig-leafed goosefoot) weedkilling efficacy grade: 3 (weed kill ratio 40% or more, less than 70%)
Chickweed [17]
  N (chickweed) weedkilling efficacy grade: 4 (weed kill ratio 70% or more, less than 90%)
birds-eye speedwell [18]
  P (birds-eye speedwell) weedkilling efficacy grade: 5 (weed kill ratio 90% or more, (practically complete withering))
Directly sown rice [19]
  b (directly sown rice) effect on crop grade: 3 (weed kill ratio 40% or more, less than 70%)
Corn [20]
  c (corn) effect on crop grade: 0 (weed kill ratio 5% or less (practically no effect))
Soybean [21]
  d (soybean) effect on crop grade: 0 (weed kill ratio 5% or less (practically no effect))
Wheat [22]
  e (wheat) effect on crop grade: 0 (weed kill ratio 5% or less (practically no effect))
Beet [23]
  f (beet) effect on crop grade: 3 (weed kill ratio 40% or more, less than 70%)
Rapeseed [24]
  g (rapeseed) effect on crop grade: 3 (weed kill ratio 40% or more, less than 70%)
Crabgrass [25]
  D (crabgrass) weedkilling efficacy grade: 5 (weed kill ratio 90% or more, (practically complete withering))
Green foxtail [26]
  E (green foxtail) weedkilling efficacy grade: 5 (weed kill ratio 90% or more, (practically complete withering))
Barnyard grass [27]
  F (barnyard grass) weedkilling efficacy grade: 4 (weed kill ratio 70% or more, less than 90%)
Wild oat [28]
  G (wild oat) weedkilling efficacy grade: 3 (weed kill ratio 40% or more, less than 70%)
black-grass [29]
  H (black-grass) weedkilling efficacy grade: 3 (weed kill ratio 40% or more, less than 70%)
Italian ryegrass [30]
  I (Italian ryegrass) weedkilling efficacy grade: 1 (weed kill ratio 5% or more, less than 20%)
Common wind-grass [31]
  J (common wind-grass) weedkilling efficacy grade: 4 (weed kill ratio 70% or more, less than 90%)
Indian mallow [32]
  K (Indian mallow) weedkilling efficacy grade: 4 (weed kill ratio 70% or more, less than 90%)
Redroot pigweed [33]
  L (redroot pigweed) weedkilling efficacy grade: 3 (weed kill ratio 40% or more, less than 70%)
fig-leafed goosefoot [34]
  M (fig-leafed goosefoot) weedkilling efficacy grade: 3 (weed kill ratio 40% or more, less than 70%)
Chickweed [35]
  N (chickweed) weedkilling efficacy grade: 3 (weed kill ratio 40% or more, less than 70%)
catchweed
  O (catchweed) weedkilling efficacy grade: 3 (weed kill ratio 40% or more, less than 70%)
birds-eye speedwell [36]
  P (birds-eye speedwell) weedkilling efficacy grade: 4 (weed kill ratio 70% or more, less than 90%)
Directly sown rice [37]
  b (directly sown rice) effect on crop grade: 0 (weed kill ratio 5% or less (practically no effect))
Corn [38]
  c (corn) effect on crop grade: 3 (weed kill ratio 40% or more, less than 70%)
Soybean [39]
  d (soybean) effect on crop grade: 3 (weed kill ratio 40% or more, less than 70%)
Wheat [40]
  e (wheat) effect on crop grade: 0 (weed kill ratio 5% or less (practically no effect))
Beet [41]
  f (beet) effect on crop grade: 3 (weed kill ratio 40% or more, less than 70%)
Rapeseed [42]
  g (rapeseed) effect on crop grade: 3 (weed kill ratio 40% or more, less than 70%)
